# Source: patent US10682371B2, “Small molecule conjugates specifically activated in tumor microenvironment for targeting and use thereof” (priority 2014, dated 2020)
# Entries after “also recorded” stand apart in the source; their conditions may differ.
# Assays:
# asparagine endopeptidase = target: T1, asparagine endopeptidase (Homo sapiens, UniProt Q99538)
# T1 sequence (Q99538 26-323 limits assumed): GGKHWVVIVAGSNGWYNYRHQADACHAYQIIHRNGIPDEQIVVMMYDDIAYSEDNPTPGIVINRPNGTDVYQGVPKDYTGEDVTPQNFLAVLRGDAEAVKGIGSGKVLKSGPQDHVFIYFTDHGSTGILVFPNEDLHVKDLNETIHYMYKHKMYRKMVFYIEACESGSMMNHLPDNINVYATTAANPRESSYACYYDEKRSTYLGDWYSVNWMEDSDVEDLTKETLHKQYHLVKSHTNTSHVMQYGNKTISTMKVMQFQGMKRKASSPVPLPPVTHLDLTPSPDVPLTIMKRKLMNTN
# Procedure: Reduction of reactant and increase of product were detected by HPLC, thereby comparing the activation efficiency of these compounds.
# When R1 is 2-(2-Methoxyethoxy)Acetyl, and R3 is Ala, activation study and efficacy study were carried out by using compounds having different cleavable linker. The study methods are identical to those in Examples 10, 11 and 12. The in vitro activation efficiency was tested by asparagine endopeptidase and the tumor inhibition rate was tested by using human breast cancer MDA-MB231 model.
# Mice = test: Toxicity of Legutaxel injected at tail vein weekly for 3 times, observed over 21 days; type: in vivo
# Procedure: Mice were injected with Legutaxel at tail vein weekly for 3 times. […] Therefore, Legutaxel's dose could at least reach 160 mg/kg/day during treatment.
# [1] = tested on: tumor-derived immunosuppressive T cells (T reg: CD4+, CD25+, Foxp3+); CD8 T cells; test: Immunological stimulation test in mice receiving tumor treatment (T reg, CD8 T cells); type: in vivo
# Source text: We further studied the immunological stimulation property of Legutaxel. […] On the contrary, the index for tumor-derived immunosuppressive T cells in treatment group by Legutaxel decreased due to targeted chemotherapy (see panels in FIGS. 3A and 3B).
# [2] = Maximum tolerated dose (MTD) / acute toxicity by single intravenous injection; conditions: female, BALB/C, mouse, in vivo, iv
# [3] = tested on: Human prostate cancer PC-3 cells; test: Tumor treatment in nude mice, PC-3 model (Example 51); type: in vivo
# Procedure: 1) Human prostate cancer PC-3 cells were purchased from American type culture collection (ATCC) and identified according the specification provided by ATCC. Cells were cultivated in DMEM culture solution containing 10% fetal bovine serum at 37° C. and 5% CO2. The cells were passaged for every three days and cells within the 15th passage were used.
# 2) Production of tumor. 5×10^6PC-3 cells were subcutaneously injected to the back of the nude mice. Mice were randomly grouped after the tumor reached at least 100 mm^3. Then treatment began and the day on which the treatment began was day 1.
# According to the clinical application of D1, D2, D3 and D4, drugs were intravenously injected (IV). […]. The control group was administered by physiological saline. Drugs were administered once weekly for four weeks.
# [4] = Table 48, nude mice, PC-3, IV once weekly for four weeks, D1-D4 25 mg/kg, Docetaxel […], Day 10
# [5] = Table 48, nude mice, PC-3, IV once weekly for four weeks, D1-D4 25 mg/kg, Docetaxel […], Day 24
molecule,measurement,setting,value
4-N—(N—(N—(N-(6-maleimido caproyl)-L-alanyl)-L-alanyl)-L-asparaginyl)-amino benzyl alcohol-MMAE-carbamate [Compound S6],"Activation by asparagine endopeptidase, in words",asparagine endopeptidase,cannot be activated; also recorded: not activated
same,Cleaving efficiency,"asparagine endopeptidase; different cleavable linkers of MMAE and Doxorubicin, in vitro activation by asparagine endopeptidase",25.6%
"COCCOCC(=O)N[C@H](C)C(=O)N[C@H](C)C(=O)N[C@H](CC(N)=O)C(=O)Nc1ccc(COC(=O)OC(C(=O)OC2C[C@@]3(O)C(OC(=O)c4ccccc4)[C@@H]4C5(OC(C)=O)COC5C[C@H](O)[C@@]4(C)C(=O)[C@H](OC(C)=O)C(=C2C)C3(C)C)[C@@H](NC(=O)c2ccccc2)c2ccccc2)cc1 (stereo in doubt) [S1′, 2-(2-methoxyethoxy) acetylamino-L-Ala-L-Ala-L-Asn-p-amino-benzyl-paclitaxel]",Dose that can be reached during treatment,Mice; tail vein weekly for 3 times,≥ 160 mg/kg/day
same,Death in toxicity experiments,"Mice; tail vein weekly for 3 times, 140, 150 and 160 mg/kg/day, observed over 21 days",no death were observed
same,Toxic CD8 T cells permeated from the tumor tissue,[1]; lung cancer treatment model,more toxic CD8 T cells
same,"Index for tumor-derived immunosuppressive T cells (T reg: CD4+, CD25+, Foxp3+)",[1]; mice receiving tumor treatment,decreased
"COCCOCC(=O)N[C@H](C)C(=O)N[C@H](C)C(=O)N[C@H](CC(N)=O)C(=O)Nc1ccc(COC(=O)N2[C@@H]3CN4C5=C(C(=O)C(N)=C(C)C5=O)[C@H](COC(N)=O)[C@]4(OC)[C@@H]32)cc1 [Compound E1, 2-(2-methoxyethoxy) acetyl-L-Ala-L-Ala-L-Asn-4-amino benzyl mitomycin]",MTD at 17 days,[2],~90 mg/kg
COCCOCCOCCOCCOCCOCC(=O)N[C@H](C)C(=O)N[C@H](C)C(=O)N[C@H](CC(N)=O)C(=O)Nc1ccc(COC(=O)N2[C@H]3[C@@H]2CN2C4=C(C(=O)C(N)=C(C)C4=O)[C@H](COC(N)=O)[C@]32OC)cc1 [Compound E2],MTD at 17 days,[2],~90 mg/kg
"COCCOCC(=O)N[C@H](C)C(=O)N[C@H](C)C(=O)N[C@H](CC(N)=O)C(=O)Nc1ccc(COC(=O)OC(C(=O)OC2C[C@@]3(O)[C@@H](OC(=O)c4ccccc4)[C@H]4[C@](C)(C(=O)[C@H](O)C(=C2C)C3(C)C)[C@@H](O)CC2OC[C@]24OC(C)=O)[C@@H](NC(=O)OC(C)(C)C)c2ccccc2)cc1 (stereo partly drawn) [Compound D1, 2-(2-methoxyethoxy) acetyl-L-Ala-L-Ala-L-Asn-4-amino benzyl-Docetaxel]",Size of tumor (mm^3) Day 10,[3]; [4],86.45 ± 26.42 mm^3
same,inhibitory rate on tumor Day 10,[3]; [4],75.0
same,Size of tumor (mm^3) Day 24,[3]; [5],143.34 ± 44.42 mm^3
same,inhibitory rate on tumor Day 24,[3]; [5],80.5
same,"Inhibition on tumor growth, in words",[3]; compared with Docetaxel group and control group,greatly improved
